The values that follow come from US20250040543A1, “Preservative Composition” (ARXADA AG, priority 2021, published 2025).

What all share (format): cell-based
One assay relates to Candida albicans. Kind of assay: MIC and Synergy Index (Kull) of two-component compositions. The protocol:
(§1) A wide range of concentrations were tested against Pseudomonas aeruginosa, Staphylococcus aureus, Escherichia coli, and Candda albicans.
(§2) The lowest concentration of each mixture or single compound which prevents an observable level of growth was determined to be the minimum inhibitory concentration (MIC) value.
(§3) Serial dilutions of each mixture or single compound were prepared. Micro-organisms were inoculated into media: Nutrient Broth (bacteria) or Malt Extract Broth (yeast). The final concentrations of micro-organisms in media was approximately 10^5-6 CFU/ml. The inoculated media was introduced to each of the serial dilutions at a 1:1 ratio, and incubated at 30±1° C. for 24-48 hours.
(§4) The MICs for each mixture was compared with the MIC of each single compound alone.
(§5) In this study the end point is measured by the MIC.

The subject of the next assay is Pseudomonas aeruginosa. Described as above. The protocol:
as §1, §2, §3, §4
Synergy was determined using the Kull equation (F. C. Kull et. al., “Mixtures of Quaternary Ammonium Compounds and Long-chain Fatty Acids as Antifungal Agents”, Appl Microbiol. 1961 November; 9(6): 538-541), which calculates a Synergy Index (SI) according the following equation:
[formula] • wherein • QA=concentration of compound A in ppm, acting alone produced an end point, • Qa=concentration of compound A in ppm, in the mixture, which produced an end point, • QB=concentration of compound B in ppm, acting alone produced an end point, and • Qb=concentration of compound B in ppm, in the mixture, which produced an end point;
as §5

Assay [1] deals with Aspergillus brasiliensis ATCC 16404. Kind of assay: Preservation efficacy test in sterile distilled water, drop plate. The note with it: 7 days, pH 7, Butyl Levulinate 0 ppm. The protocol: In the following example, the following test organisms were used: • Pseudomonas aeruginosa ATCC 9027 • Aspergillus brasiliensis ATCC 16404 [table] Mould strain spores were harvested (sterile distilled water+0.05% polysorbate 80) and treated to remove fungal hyphae. Mould strain spores were prepared in diluent (sterile distilled water) to obtain a final concentration of […]. [table] […] Each sample was inoculated at t=0 with a known concentration of micro-organism. Each inoculated sample was then mixed until a homogenous mixture was obtained. […] The solution was left for 15 minutes. Subsequent dilutions were prepared by serial dilution of 0.1 ml into 0.9 ml of neutralising broth. Bacteria were serially diluted to 10^−4, Fungi were serially diluted to 10^−3. Each serial dilution was thoroughly mixed and 25 μl drops were aliquoted onto the surface of pre-prepared agar plates. Plates were prepared in sextupicate for each sample dilution. The agar plates were allowed to dry, then inverted and incubated under conditions appropriate for the test microorganisms. CFU/ml was calculated taking into account dilution factors. […] The lower and upper limits for drop plating were only employed on the highest and lowest dilution factor plates.

[2] abbreviates: Sodium Pyrithione alone, or its concentration in the mixture with ethyl levulinate.
[3] abbreviates: Sodium pyrithione alone, or its concentration in the mixture with butyl levulinate.
[4] abbreviates: ADBAC alone, or its concentration in the mixture with ethyl levulinate.

With `[Na+].[O-][n+]1ccccc1[S-]` [Sodium Pyrithione, sodium pyrithione, reference compound], the “MIC (ppm) to inhibit growth: Sodium Pyrithione” value is listed as 31 ppm in the assay on Candida albicans (setting [2]), 16 ppm in the assay with Candida albicans (setting [3]), 63 ppm in the assay on Pseudomonas aeruginosa (setting [2]) and 63 ppm in the assay with Pseudomonas aeruginosa (setting [3]).

`CCCCNC(=O)OCC#CI` [IPBC, 3-Iodo-2-propynyl butylcarbamate, reference compound]: the Log reduction worked out at 1.21 in assay [1] (IPBC 100 ppm); 0.77 in assay [1] (IPBC 250 ppm); 0.71 in assay [1] (IPBC 500 ppm); 0.57 in assay [1] (IPBC 750 ppm); 0.85 in assay [1] (IPBC 1000 ppm).

As for “poly(hexamethylene) biguanide [PHMB, reference compound]”, the “MIC (ppm) to inhibit growth: PHMB” value in the assay on Candida albicans (PHMB alone, or its concentration in the mixture with butyl levulinate) was 313 ppm.

For “alkyldimethylbenzylammonium chloride [ADBAC]”, the results for the “MIC (ppm) to inhibit growth: ADBAC” value in the assay with Candida albicans (setting [4]) and in the assay on Pseudomonas aeruginosa (setting [4]) were 8 ppm and 16 ppm, respectively.

As for `O=c1[nH]sc2ccccc12` [BIT, benzisothiazolinone, reference compound], in the assay on Candida albicans (BIT alone, or its concentration in the mixture with butyl levulinate), the “MIC (ppm) to inhibit growth: BIT” value is reported as 31 ppm.
